Data as given in patent EP4635969A1, “NOVEL GLUCOCORTICOID, METHOD FOR PREPARING SAME, AND USE THEREOF” (Tianjin Pharmaceutical Biotechnology Co., Ltd., priority 2022, dated 2024).
Read-outs that look alike come from different tables or passages of the source.

What was measured:
asthma model mice = assay: Anti-asthma pharmacodynamic experiment: airway hyperresponsiveness (Penh) after methacholine challenge; format: in vivo, female BALB/c mice; conditions: compared with the model group
[1] = Determination of stability in plasma in vitro, human plasma (LC-MS/MS); format: in vitro ADME; conditions: same experimental conditions (human and mouse plasma)
Description: Pharmacological Example 3: Determination of Stability in Plasma in Vitro
The stock solution was diluted with acetonitrile to obtain a working solution at a concentration of 100 µ M. The solution should be freshly prepared prior to use and maintained at room temperature during application.
990 µ L of human and mouse plasma (N = 2) were separately pipetted and pre-incubated at 37 °C for 5 min. Then, 10 µ L of the test compound working solution was added and vortexed thoroughly (the final concentration of the test compound was 1 µ M). Immediately, 50 µ L of the plasma sample was added to 150 µ L of ice-cold precipitation agent containing the internal standard and vortexed thoroughly as the 0-time sample. The remaining plasma sample was continuously incubated at 37 °C, and 50 µ L of the plasma sample was aspirated and added to 150 µ L of ice-cold precipitation agent containing the internal standard at preset sampling time points, followed by thorough vortexing. The collected samples were stored in a freezer at -60 to -90 °C until analysis.
The concentration of the test compound was determined by LC-MS/MS, and its degradation was monitored. (semi-quantitative determination was conducted by comparing the peak area of the analyte to that of the internal standard).

[2] = test system: dry eye syndrome model New Zealand rabbits; assay: Dry eye syndrome experiment (benzalkonium chloride model): tear film break-up time; format: in vivo, male New Zealand White rabbits; conditions: for tear film break-up time: compared with the model group
Description: (§1) Positive control drug: Fluorometholone Eye Drops (specification: 5 mL/5 mg; Santen Pharmaceutical (CHINA) Co., Ltd.; Lot No.: 1FM6625) was used as the positive control drug and stored at room temperature protected from light until use.
Thirty male New Zealand White rabbits (conventional grade) were prepared. Six rabbits were randomly selected as the blank control group, and the remaining animals were administered 0.1% benzalkonium chloride to the left eye twice daily (morning and evening) , 10 µL/animal each time. On day 6 of modeling, tear secretion was measured using phenol red cotton threads to determine whether the model was successfully established. […] During the administration, all animals except the blank control group were administered 10 µL of 0.1% benzalkonium chloride to the left eye once daily to maintain dry eye symptoms..
• Test time: D3, D7, D15; • Test animals: All animals were tested before grouping; all enrolled surviving animals were tested after administration; • Test method: 1% Fluorescein sodium was dropped onto the inner side of the rabbit's lower eyelid, 10 µL/animal. The rabbit's eyes were closed and gently massaged to evenly distribute the fluorescein sodium on the eye surface. The rabbit's eyes were then sequentially placed under a slit lamp. The tear film break-up time was observed and recorded as the time from eye opening to the appearance of the first dark spot. If no dark spot appeared, the time was calculated as 60 seconds.
(§2) The normality and homogeneity of variance were tested by Levene's test. If there was no statistical significance (P > 0.05), one-way analysis of variance (ANOVA) was used for statistical analysis. If ANOVA was statistically significant (P ≤ 0.05), LSD test (parametric method) was used for comparative analysis. If the variance was heterogeneous (P ≤ 0.05), Kruskal-Wallis test was used. If the Kruskal-Wallis test was statistically significant (P ≤ 0.05), Dunnett's test (nonparametric method) was used for comparative analysis.

epidermal layer in rats = assay: Adverse reactions of continuous dermal administration: thickness of the epidermal layer (H&E sections); format: in vivo, SD rats; conditions: compared with the blank control group
Text: Pharmacological Example 10: Experiment on Adverse Reactions of Continuous Dermal Administration in Rats
Animals: SD rats, SPF grade, with an equal number of males and females, weighing 230-250 g.
Animal grouping: After adaptive feeding, the rats were randomly divided into 4 groups. […] One day before administration, the backs of rats were shaved at an area of 5 cm × 6 cm. […] The rats in the blank control group were applied with the blank matrix of corresponding mass on their backs, twice a day for a consecutive week. Table 21. Animal grouping and drug administration dosages for the experiment on adverse reactions of continuous dermal administration in rats
To examine the effects of continuous administration of the test samples on the epidermal layer, the back skin tissues were stained with hematoxylin and eosin (H&E) (magnification ×40), and the thickness of the epidermal layer was quantitatively measured based on the H&E-stained sections.

[3] = test system: dry eye syndrome model New Zealand rabbits; assay: Dry eye syndrome experiment (benzalkonium chloride model): corneal fluorescein sodium staining; format: in vivo, male New Zealand White rabbits; conditions: for inflammatory response on the ocular surface / ocular symptoms: compared with the model group
Description: Pharmacological Example 6: Therapeutic Pharmacodynamic Experiment on Dry Eye Syndrome in New Zealand Rabbits
as §1
Thirty male New Zealand White rabbits (conventional grade) were prepared. Six rabbits were randomly selected as the blank control group, and the remaining animals were administered 0.1% benzalkonium chloride to the left eye twice daily (morning and evening) , 10 µL/animal each time. […] During the administration, all animals except the blank control group were administered 10 µL of 0.1% benzalkonium chloride to the left eye once daily to maintain dry eye symptoms..
• Test time: D3, D7, D15; • Test animals: All animals were tested before grouping; all enrolled surviving animals were tested after administration; • Test method: 2 µL of 1% Fluorescein sodium was dropped into the conjunctival sac. After 5 s, the excess fluorescein was rinsed with 0.9% normal saline. The conjunctival staining was observed under a slit lamp with cobalt blue diffused light.
as §2

[4] = Stability in animal lung tissue homogenate, skin tissue homogenate and aqueous humor; format: in vitro ADME
[5] = target: T1, glucocorticoid receptor (GR) (Homo sapiens, UniProt P04150); assay: Assay for agonist activity on glucocorticoid receptor (luciferase reporter, HEK293 cells transfected with pBIND-GR plasmid); format: cell-based
T1 sequence (P04150 521-777): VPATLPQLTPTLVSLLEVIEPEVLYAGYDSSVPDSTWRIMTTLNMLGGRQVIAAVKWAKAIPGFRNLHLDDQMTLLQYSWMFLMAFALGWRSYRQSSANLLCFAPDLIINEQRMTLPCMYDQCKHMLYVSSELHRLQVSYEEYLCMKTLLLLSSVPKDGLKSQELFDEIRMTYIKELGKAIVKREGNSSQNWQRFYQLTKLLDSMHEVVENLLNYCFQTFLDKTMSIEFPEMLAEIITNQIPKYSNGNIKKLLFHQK
Outline: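 HEK293 cells transfected with pBIND-GR, seeded in phenol red-free DMEM with 5% charcoal-stripped serum, then exposed to compounds in a 10-point, 4-fold dilution series from 10 µM, in duplicate. Luciferase luminescence read after incubation; EC50 from nonlinear fit. Vehicle blank: 0.1% DMSO.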

[6] = GR agonist EC50 (nM), HEK293 cells transfected with pBIND-GR, luciferase signal
[7] = Nuclear receptor enzyme activity (nM) GR, EC50 of agonist activity, HEK293 reporter cells
[8] = D3, 1 mg/mL, 50 µL/eye, 3 times a day for 14 days
[9] = D7, 1 mg/mL, 50 µL/eye, 3 times a day for 14 days
[10] = D15, 1 mg/mL, 50 µL/eye, 3 times a day for 14 days

C[C@]12C=CC(=O)C=C1CC[C@H]1[C@@H]3C[C@H]4OC(c5ccc(CSC6COC(=O)C6)cc5)O[C@@]4(C(=O)CO)[C@@]3(C)C[C@H](O)[C@@]12Cl (stereo partly drawn) [Compound 26, (6aS,6bR,7S,8aS,8bS,11aR,12aS,12bS)-6b-Chloro-7-hydroxy-8b-(2-hydroxyacetyl)-6a,8a-dimethyl-10-(4-(((5-oxotetrahydrofuran-3-yl)thio)methyl)phenyl)-1,2,6a,6b,7,8,8a,8b,11a,12,12a,12b-do decahydro-4H-naphtho[2',1':4,5]indeno[1,2-d][1,3]dioxol-4-one]
Effects on airway hyperresponsiveness (Penh values) in mice (asthma model mice): significantly decreased the Penh values in mice
plasma instability [1]: exhibited the characteristic of plasma instability
tear film break-up time [2]: significantly increased the tear film break-up time
thickness of the epidermal layer after continuous dermal administration (epidermal layer in rats): no significant changes in the thickness of the epidermal layer observed
inflammatory response on the ocular surface / ocular symptoms [3]: significantly alleviated the ocular symptoms in dry eye syndrome model New Zealand rabbits
stability in animal lung tissue homogenate, skin tissue homogenate, and aqueous humor [4]: relatively stable
EC50 [5, 6]: 0.37 nM

C[C@]12C=CC(=O)C=C1[C@@H](F)C[C@H]1[C@@H]3C[C@H]4OC(c5ccc(CSC6CCOC6=O)nc5)O[C@@]4(C(=O)CO)[C@@]3(C)C[C@H](O)[C@@]12F (stereo partly drawn) [Compound 46, (25,6aS,6bR,78,8a8,8bS,11aR,12a8,12b8S)-2,6b-Difluoro-7-hydroxy-8b-(2-hydroxyacetyl)-6a,8a-dimethyl-10-(6-(((2-oxotetrahydrofuran-3-yl)thio)methyl)pyridin-3-yl)-1,2,6a,6b,7,8,8a,8b,11a,12, 12a,12b-dodecahydro-4H-naphtho[2',1':4,5]indeno[1,2-d][1,3]dioxol-4-one]
Effects on airway hyperresponsiveness (Penh values) in mice (asthma model mice): significantly decreased the Penh values in mice
plasma instability [1]: exhibited the characteristic of plasma instability
tear film break-up time [2]: significantly increased the tear film break-up time
thickness of the epidermal layer after continuous dermal administration (epidermal layer in rats): no significant changes in the thickness of the epidermal layer observed
inflammatory response on the ocular surface / ocular symptoms [3]: significantly alleviated the ocular symptoms in dry eye syndrome model New Zealand rabbits
stability in animal lung tissue homogenate, skin tissue homogenate, and aqueous humor [4]: relatively stable
EC50 [5, 6]: 0.23 nM

C[C@]12C=CC(=O)C=C1[C@@H](F)C[C@H]1[C@@H]3C[C@H]4OC(c5ccc(CSC6CCOC6=O)cc5)O[C@@]4(C(=O)SCF)[C@@]3(C)C[C@H](O)[C@@]12F (stereo partly drawn) [Compound 34, S-(Fluoromethyl) (2S,6aS,6bR,7S,8aS,8bS,11aR,12aS,12bS)-2,6b-difluoro-7-hydroxy-6a,8a-dimethyl-4-oxo-10-(4-( ((2-oxotetrahydrofuran-3-yl)thio)methyl)phenyl)-1,2,4,6a,6b,7,8,8a,11a,12,12a,12b-dodecahydro-8bH-naphtho[2',1':4,5]indeno[1,2-d][1,3]dioxole-8b-carbothioate]
Effects on airway hyperresponsiveness (Penh values) in mice (asthma model mice): significantly decreased the Penh values in mice
plasma instability [1]: exhibited the characteristic of plasma instability
tear film break-up time [2]: significantly increased the tear film break-up time
thickness of the epidermal layer after continuous dermal administration (epidermal layer in rats): no significant changes in the thickness of the epidermal layer observed
inflammatory response on the ocular surface / ocular symptoms [3]: significantly alleviated the ocular symptoms in dry eye syndrome model New Zealand rabbits
stability in animal lung tissue homogenate, skin tissue homogenate, and aqueous humor [4]: relatively stable
EC50 [5, 6]: 0.1 nM
EC50 [5, 7]: 0.1 nM

C[C@]12C=CC(=O)C=C1[C@@H](F)C[C@H]1[C@@H]3C[C@H]4OC(c5ccc(CSC6CCOC6=O)cc5)O[C@@]4(C(=O)OCC#N)[C@@]3(C)C[C@H](O)[C@@]12F (stereo partly drawn) [Compound 37, Cyanomethyl (2S,6aS,6bR,7S,8aS,8bS,11aR,12aS,12bS)-2,6b-difluoro-7-hydroxy-6a,8a-dimethyl-4-oxo-10-(4-( ((2-oxotetrahydrofuran-3-yl)thio)methyl)phenyl)-1,2,4,6a,6b,7,8,8a,11a,12,12a,12b-dodecahydro-8bH-naphtho[2',1':4,5]indeno[1,2-d][1,3]dioxole-8b-carboxylate]
Effects on airway hyperresponsiveness (Penh values) in mice (asthma model mice): significantly decreased the Penh values in mice
plasma instability [1]: exhibited the characteristic of plasma instability
tear film break-up time [2]: significantly increased the tear film break-up time
thickness of the epidermal layer after continuous dermal administration (epidermal layer in rats): no significant changes in the thickness of the epidermal layer observed
inflammatory response on the ocular surface / ocular symptoms [3]: significantly alleviated the ocular symptoms in dry eye syndrome model New Zealand rabbits
stability in animal lung tissue homogenate, skin tissue homogenate, and aqueous humor [4]: relatively stable
EC50 [5, 6]: 0.78 nM

C[C@]12C=CC(=O)C=C1CC[C@H]1[C@@H]3C[C@H]4OC(c5ccc(CSC6CCOC6=O)nc5)O[C@@]4(C(=O)CO)[C@@]3(C)C[C@H](O)[C@@]12F (stereo partly drawn) [Compound 47, (6aS,6bR,7S,8aS,8bS,11aR,12aS,12bS)-6b-Fluoro-7-hydroxy-8b-(2-hydroxyacetyl)-6a,8a-dimethyl-10-(6-(((2-oxotetrahydrofuran-3-yl)thio)methyl)pyridin-3-yl)-1,2,6a,6b,7,8,8a,8b,11a,12,12a,12 b-dodecahydro-4H-naphtho[2',1':4,5]indeno[1,2-d][1,3]dioxol-4-one]
Effects on airway hyperresponsiveness (Penh values) in mice (asthma model mice): significantly decreased the Penh values in mice
plasma instability [1]: exhibited the characteristic of plasma instability
tear film break-up time [2]: significantly increased the tear film break-up time
thickness of the epidermal layer after continuous dermal administration (epidermal layer in rats): no significant changes in the thickness of the epidermal layer observed
inflammatory response on the ocular surface / ocular symptoms [3]: significantly alleviated the ocular symptoms in dry eye syndrome model New Zealand rabbits
stability in animal lung tissue homogenate, skin tissue homogenate, and aqueous humor [4]: relatively stable
EC50 [5, 6]: 0.34 nM
EC50 [5, 7]: 0.34 nM

C[C@]12C=CC(=O)C=C1CC[C@H]1[C@@H]3C[C@H]4OC(c5ccc(CSC6COC(=O)C6)cc5Cl)O[C@@]4(C(=O)CO)[C@@]3(C)C[C@H](O)[C@@]12F (stereo partly drawn) [Compound 20, (6aS,6bR,7S,8aS,8bS,11aR,12aS,12bS)-10-(2-Chloro-4-(((5-oxotetrahydrofuran-3-yl)thio)methyl)phenyl)-6b-fluoro-7-hydroxy-8b-(2-hydroxyacetyl)-6a,8a-dimethyl-1,2,6a,6b,7,8,8a,8b,11a,12,12a, 12b-dodecahydro-4H-naphtho[2',1':4,5]indeno[1,2-d][1,3]dioxol-4-one]
Effects on airway hyperresponsiveness (Penh values) in mice (asthma model mice): significantly decreased the Penh values in mice
plasma instability [1]: exhibited the characteristic of plasma instability
Tear film break-up time (s) D3 [2, 8]: 37.00 ± 13.36 s
Tear film break-up time (s) D7 [2, 9]: 48.00 ± 9.94 s
Tear film break-up time (s) D15 [2, 10]: 48.28 ± 8.21 s
tear film break-up time [2]: significantly increased the tear film break-up time on day 15
thickness of the epidermal layer after continuous dermal administration (epidermal layer in rats): no significant changes in the thickness of the epidermal layer observed
Corneal fluorescein sodium staining score D3 [3, 8]: 2.33 ± 0.82
Corneal fluorescein sodium staining score D7 [3, 9]: 1.5 ± 0.55
Corneal fluorescein sodium staining score D15 [3, 10]: 1.1 ± 0.52
inflammatory response on the ocular surface / ocular symptoms [3]: significantly inhibited the inflammatory response on the ocular surface on day 15
stability in animal lung tissue homogenate, skin tissue homogenate, and aqueous humor [4]: relatively stable
EC50 ([5]; HEK293 cells transfected with pBIND-GR, luciferase signal, read-out: GR agonist EC50): 0.33 nM
